The record followed here is article PMC2880392 (Bioorganic & medicinal chemistry letters, 2010).

Like-named read-outs stand apart in the source and are kept apart here. Where only a bound is given, the exact number is not on record here.

Holding throughout (format): cell-based
Assay [1] concerns IIIB strain of HIV-1 (WT). Kind of assay: Anti-HIV-1 activity, protection of infected MT-2 cells. The following applies: for EC50: Human immunodeficiency virus 1, IIIB; for anti-HIV-1 activity in words: wild-type HIV-1, MT-2 cells.
The subject of assay [2] is HIV-1 Y181C variant strain. As to the kind of experiment: Anti-HIV-1 activity in MT-2 cells, Y181C variant strain. Conditions: Human immunodeficiency virus 1, MT2, read-out: Y181C EC50.
Assay [3] has as its system HIV-1 K103N/Y181C variant strain. Kind of assay: Anti-HIV-1 activity in MT-2 cells, K103N/Y181C variant strain. Conditions: Human immunodeficiency virus 1, MT2, read-out: K103N/Y181C EC50.
Where [4] appears, read: MT2, read-out: Anti-HIV-1 Activity (EC50).

With `Clc1cccc(Cl)c1Cc1nnc(Nc2ccc(COCc3ccccc3)cc2)o1` [Compound 1b], in assay [1] (setting [4]), the EC50 was over 21000 nM. The “anti-HIV-1 activity in words” value in assay [1] is recorded as “inactivity”.
As to `Clc1cccc(Cl)c1Cc1nnc(Nc2ccc(COCc3ccoc3)cc2)o1` [Compound 1g], the EC50 in assay [1] (setting [4]) was over 21000 nM.
On the same count and under the same terms, then `Clc1cccc(Cl)c1Cc1nnc(Nc2ccc(COCc3ccsc3)cc2)o1` [Compound 1h], with over 21000 nM.
Regarding `OCc1ccc(Nc2ncc(Cc3c(F)cccc3F)o2)cc1Cl` [Compound 3m], the “enhancement of WT activity by addition of the chlorine (factor)” value in assay [1] (3m versus 3i) amounted to 15.
Regarding `[O-][n+]1ccc(OCc2ccc(Nc3ncc(Cc4c(F)cccc4F)o3)cc2Cl)cc1` [Compound 3o], the EC50 in assay [2] was over 2700 nM; in assay [3], over 2100 nM.
Consider `N#Cc1ccc(Nc2ncc(Cc3c(F)cccc3F)o2)cc1` [Compound 3p], for which the EC50 in assay [2] is over 2700 nM.
On to `N#Cc1ccc(Nc2ncc(Cc3c(F)cccc3F)o2)cc1Cl` [Compound 3q], for which, in assay [3], the EC50 is over 2100 nM.
Take `Fc1cccc(F)c1Cc1cnc(Nc2ccc(-c3ccncc3)c(Cl)c2)o1` [Compound 3u]: in assay [1], the “anti-HIV-1 activity in words” value is on record as “good activity”.
Take `Fc1cccc(F)c1Cc1cnc(Nc2ccc(-c3cccnc3)c(Cl)c2)o1` [Compound 3v]: in assay [1], the “anti-HIV-1 activity in words” value is “good activity”. The EC50 in assay [3] was over 2100 nM.
As for `O=C1Nc2ccc(Cl)cc2[C@@](C#CC2CC2)(C(F)(F)F)O1` [evafirenz, reference compound], in assay [1] (MT2, read-out: WT EC50), the EC50 was found to be 2 nM.
With `Cc1ccnc2c1NC(=O)c1cccnc1N2C1CC1` [nevirapine, reference compound], the EC50 in assay [3] was over 2100 nM.
